According to US20200277373A1, “ANTI-TREM2 ANTIBODIES AND METHODS OF USE THEREOF” (Denali Therapeutics Inc., priority 2017, published 2020):

Legend:
Format in all cases: cell-based
[1] = target: T1, R47H TREM2 mutant (Homo sapiens, UniProt Q9NZC2, R47H); assay: Liposome stimulation pSyk AlphaLISA, HEK293 overexpressing TREM2-R47H and DAP12; conditions: liposomes 30% lipid/70% PC (KLA 10%/90%), fold change over HBSS
T1 construct: expressed in transfected cells
Description: (§1) Lipids were purchased from Avanti Polar Lipids (Alabaster, Ala.) or Echelon Biosciences (Salt Lake City, Utah). Each screened lipid was resuspended in chloroform and added at 30 mole percent composition to 70 mole percent phosphatidylcholine (PC; 1,2-dioleoyl-sn-glycero-3-phosphocholine, Avanti Polar Lipids). Kdo2-Lipid A was added at a 10 mole percent composition with 90 mole percent PC. Lipid mixes were dried under nitrogen gas and resuspended in HBSS at a concentration of 4 mg/mL. Mixes were vortexed or briefly sonicated until resuspended, then bath sonicated for 1-5 minutes. Liposomes were used for 1-2 weeks. 3 independent batches of liposomes were used in experiments.
(§2) HEK293 cell lines overexpressing TREM2 and DAP12, mutant TREM2-R47H and DAP12, or DAP12 alone were plated in 96-well PDL-coated plates at a density of 40,000 cells per well and cultured for 36-48 hours until 90-100% confluent.
(§3) Cell culture medium was removed and cells were washed once with 200ul HBSS. Liposomes were diluted in HBSS in concentrations ranging from 0.03125 mg/mL to 2 mg/mL, then 50 μl was added to wells in 2-3 technical replicates per plate. Each plate contained HBSS negative control wells, 100% PC liposome control, 5 μg/mL agonist anti-TREM2 positive control (Abnova; Taiwan; # MAB2056), and 5 μg/mL mouse IgG3 isotype control (R&D Systems; Minneapolis, Minn.; # MAB007). Stimuli were incubated with cells for 5 minutes at 37° C., 5% CO2, liposomes were removed, and plates were frozen at −80° C.
(§4) Cells were lysed for 30 minutes to 1 hour on ice in 50 ul/well Cell Lysis Buffer (Cell Signaling Technology; Danvers, Mass.; #9803) with 1 mM PMSF. AlphaLISA SureFire Ultra p-Syk Tyr525/526 assay kit (PerkinElmer, ALSU-PSYK-A10OK) was used to measure pSyk levels in lysate as per manufacturer protocol. 10 μl lysate was added to 384-well OptiPlates (PerkinElmer; #6007290) and an EnVision Multilabel Plate Reader (PerkinElmer) was used to measure AlphaLISA fluorescence.
(§5) PSyk AlphaLISA fluorescence was converted to a log 2 scale. Fluorescence values from liposomes and controls were each subtracted from average fluorescence values from HBSS stimulated wells on the same plate (log 2(liposome)−log 2(HBSSave)=log 2(signal)). The result was converted back to a standard scale to measure fold change (2^log 2(signal)=fold change). Technical replicate fold changes values were averaged to obtain the fold change over background listed (pSyk FOB). Graphs represent values from independent experiments or individual human donors. Results from the screen on the HEK293 overexpressing cell lines are shown in Table 9 below and in FIG. 8A-8B. HEK293 results showing specificity for TREM2 over DAP12 expressed alone can be used to extrapolate which lipid species are likely acting as TREM2 ligands on human macrophages.

[2] = target: T2, DAP12 alone (Homo sapiens, UniProt O43914); assay: Liposome stimulation pSyk AlphaLISA, HEK293 expressing DAP12 alone; conditions: liposomes 30% lipid/70% PC (KLA 10%/90%), fold change over HBSS
T2 construct: expressed in transfected cells
T2 sequence (O43914 22-113): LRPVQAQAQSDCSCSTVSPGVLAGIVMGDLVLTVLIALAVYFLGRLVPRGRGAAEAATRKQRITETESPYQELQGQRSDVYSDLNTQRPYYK
Description: as §1, §2, §3, §4, §5

[3] = target: T3, TREM2 (Homo sapiens, UniProt Q9NZC2); assay: Liposome stimulation pSyk AlphaLISA, HEK293 overexpressing TREM2 and DAP12; conditions: liposomes 30% lipid/70% PC (KLA 10%/90%), fold change over HBSS
T3 construct: expressed in transfected cells
T3 sequence (Q9NZC2 19-230): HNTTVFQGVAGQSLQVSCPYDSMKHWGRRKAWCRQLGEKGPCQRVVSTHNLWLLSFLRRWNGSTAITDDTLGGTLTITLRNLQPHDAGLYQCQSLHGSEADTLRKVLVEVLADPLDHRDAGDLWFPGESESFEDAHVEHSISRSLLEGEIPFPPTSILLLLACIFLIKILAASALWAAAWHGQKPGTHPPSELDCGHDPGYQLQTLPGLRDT
T3 sequence (O43914 22-113 partner): as the sequence (O43914 22-113) above
Description: as §1, §2, §3, §4, §5

[4] = tested on: primary human macrophages; assay: Liposome stimulation pSyk AlphaLISA, primary human macrophages; conditions: liposomes 30% lipid/70% PC (KLA 10%/90%)
Description: as §1
10 mL human blood was obtained from Blood Centers of the Pacific. Monocytes were extracted using RosetteSep Human Monocyte Enrichment Cocktail ([…] Technologies Inc.; Vancouver, BC; #15068) as per manufacturer protocols. Density gradient was performed with Ficoll-Paque Premium (GE Healthcare Life Sciences; Pittsburgh, Pa.; #17-5442-02). Isolated monocytes were resuspended at ˜1-1.3 million cells/mL and cultured for 5-6 days in RPMI, 10% Hyclone Fetal Bovine Serum, and penicillin/streptomycin supplemented with 50 ng/mL human M-CSF (Gibco, # PHC9501) in T175 tissue culture treated flasks. M-CSF was replenished every 2-3 days. Cells were washed once with PBS, 15 mL fresh medium was added, and cells were harvested by scraping. Cells were cultured overnight at a density of 100,000 cells per well on tissue culture treated 96-well plates supplemented with 10-25 ng/mL M-CSF.
as §3, §4, §5

T1 sequence (Q9NZC2 19-230 R47H): as the sequence (Q9NZC2 19-230) above, with R29H counted along it
T1 sequence (O43914 22-113 partner): as the sequence (O43914 22-113) above

Row | R47H TREM2 mutant (pSyk FOB) [1] [FOB] | DAP12 alone (pSyk FOB) [2] [FOB] | Human TREM2 (pSyk FOB) [3] [FOB] | Compound | pSyk FOB [4] [FOB]
1 | 6.27 | 1.20 | 2.61 | C[C@H](CCCC(C)(C)O)[C@H]1CC[C@H]2[C@@H]3CC=C4C[C@@H](O)CC[C@]4(C)[C@H]3CC[C@]12C [25(S)hydroxycholesterol (25OHC), 25(S)hydroxycholesterol] | 1.14
2 | 2.27 | 0.86 | 2.01 | CCCCCCCC/C=C\CCCCCCCC(=O)OC[C@H](COP(=O)([O-])OCC[N+](C)(C)C)OC(=O)CCCCCCC/C=C\CCCCCCCC [100% Phosphatidylcholine (PC), 1,2-dioleoyl-sn-glycero-3-phosphocholine, reference compound] | 1.18
3 | 3.70 | 1.16 | 3.42 | CCCCCCCC(=O)OC[C@H](COP(=O)(O)OP(=O)(O)O)OC(=O)CCCCCCC [Diacylglycerol pyrophosphate (DGPP), Diacylglycerol pyrophosphate] | 1.61
4 | 2.24 | 1.14 | 1.04 | CC(C)CCC[C@@H](C)[C@H]1CC[C@H]2[C@@H]3CC=C4C[C@@H](O)CC[C@]4(C)[C@H]3CC[C@]12C [Free cholesterol (FC), Free cholesterol] | 1.44
5 | 1.07 | 0.71 | 1.09 | CCCCCCCCCCCCC/C=C/[C@@H](O)[C@@H](N)CO[C@@H]1O[C@H](CO)[C@H](O)[C@H](O)[C@H]1O [Galactosylsphingosine (GalSo), Galactosylsphingosine] | –
6 | 1.27 | 1.31 | 1.34 | CCCCCCCCCCCCC/C=C/[C@@H](O)[C@@H](N)CO[C@@H]1O[C@H](CO)[C@@H](O)[C@H](O)[C@H]1O [Glucosyl sphingosine (GlcSo), Glucosyl sphingosine] | 2.05
7 | 1.39 | 1.26 | 0.76 | CCCCCCCCCCCCCCC[C@@H](O)[C@@H](N)CO [Sphinganine] | –
8 | 0.97 | 0.85 | 0.79 | CCCCCCCCCCCCCCCCCCCCCCCCCC(=O)N[C@@H](CO[C@H]1O[C@H](CO)[C@H](O)[C@H](O)[C@H]1O)[C@H](O)[C@H](O)CCCCCCCCCCCCCC [α-galactosylceramide (KRN7000), α-galactosylceramide] | –
9 | 1.83 | 1.55 | 1.17 | Acyl Carnitine [Acyl Carnitine (AC)] | –
10 | 0.68 | 0.68 | 1.20 | Diacylglycerol 34:1 [Diacylglycerol 34:1 (DG34:1)] | –
11 | 0.73 | 0.64 | 1.05 | Diacylglycerol 38:4 [Diacylglycerol 38:4 (DG 38:4)] | –
12 | 1.47 | 0.84 | 1.22 | Dihyrdoceramide [Dihyrdoceramide (DhCer)] | –
13 | – | – | – | Glucosylceramide [Glucosylceramide (GlcCer)] | 1.58
14 | 1.47 | 1.14 | 1.26 | Lysophosphatidylcholine [Lysophosphatidylcholine (LPC)] | –
15 | 0.94 | 0.78 | 0.67 | N-Acyl-phosphatidylethanolamine [N-Acyl-phosphatidylethanolamine (NAPE)] | –
16 | 1.41 | 0.69 | 1.58 | alkylacylglycerophosphocholine [alkylacylglycerophosphocholine (PAF)] | –
17 | 1.46 | 0.67 | 1.81 | lysoalkylacylglycerophosphocholine | –

Row | Compound | R47H TREM2 mutant (pSyk FOB) [1] [FOB] | DAP12 alone (pSyk FOB) [2] [FOB] | Human TREM2 (pSyk FOB) [3] [FOB] | pSyk FOB [4] [FOB]
18 | CCCCCCCCCCCCCCCC(=O)OC[C@H](COP(=O)([O-])OCC[N+](C)(C)C)OC(=O)CCCC=O [1-palmitoyl-2-(5′-oxo-valeroyl)-sn-glycero-3-phosphocholine] | 1.57 | 1.34 | 0.86 | –
19 | CCCCC/C=C\C/C=C\C/C=C\C/C=C\CCCC(=O)OC(CO)CO [2-Arachidonoylglycerol (2-AG), 2-Arachidonoylglycerol] | 0.84 | 1.11 | 0.68 | 1.23
20 | CC(C)CCC[C@@H](C)[C@H]1CC[C@H]2[C@@H]3C(=O)C=C4C[C@@H](O)CC[C@]4(C)[C@H]3CC[C@]12C [7-ketocholesterol (7-KC), 7-ketocholesterol] | 3.42 | 1.36 | 1.10 | 1.18
21 | CC(C)[C@@H](O)CC[C@@H](C)[C@H]1CC[C@H]2[C@@H]3CC=C4C[C@@H](O)CC[C@]4(C)[C@H]3CC[C@]12C [24(S)hydroxycholesterol (24OHC), 24(S)hydroxycholesterol] | 8.44 | 1.57 | 4.50 | 1.56
22 | C[C@@H](CO)CCC[C@@H](C)[C@H]1CC[C@H]2[C@@H]3CC=C4C[C@@H](O)CC[C@]4(C)[C@H]3CC[C@]12C [27-hydroxycholesterol (27OHC), 27-hydroxycholesterol] | 9.25 | 1.36 | 5.26 | 1.72
23 | CC(C)CCC[C@@H](C)[C@H]1CC[C@H]2[C@@H]3CC=C4C[C@@H](OP(=O)(O)O)CC[C@]4(C)[C@H]3CC[C@]12C [Cholesterol phosphate (CP), Cholesterol phosphate] | 3.09 | 1.27 | 2.43 | 1.18
24 | CCCCCCCCCCCCCC(=O)O[C@H](CCCCCCCCCCC)CC(=O)O[C@@H]1[C@@H](NC(=O)C[C@@H](CCCCCCCCCCC)OC(=O)CCCCCCCCCCC)[C@H](OC[C@H]2O[C@H](OP(=O)(O)O)[C@H](NC(=O)C[C@H](O)CCCCCCCCCCC)[C@@H](OC(=O)C[C@H](O)CCCCCCCCCCC)[C@@H]2O)O[C@H](CO[C@]2(C(=O)O)C[C@@H](O[C@]3(C(=O)O)C[C@@H](O)[C@@H](O)[C@@H]([C@H](O)CO)O3)[C@@H](O)[C@@H]([C@H](O)CO)O2)[C@H]1OP(=O)(O)O [Kdo2-Lipid A (KLA), Kdo2-Lipid A] | 6.65 | 1.25 | 5.15 | 2.73
25 | CCCCCCCCCCCCC/C=C/[C@@H](O)[C@@H](N)COP(=O)([O-])OCC[N+](C)(C)C [Lysosphingomyelin (LSM), Lysosphingomyelin] | 0.85 | 1.03 | 0.67 | 1.26
